{"source": "ChEMBL document CHEMBL4804286", "about": "“3-amino-4-(4-(4 (dimethylcarbamoyl) phenyl)-1,4-diazepan-1-yl) thieno [2,3-b] pyridine-2-carboxamide for use in cancer therapy and formulations comprising the same” (2020)", "key": {"[1]": {"test_system": "Tyrosine-protein kinase ABL1 (Homo sapiens), P00519 [M351T]", "assay": "Inhibition of phosphorylated human ABL1 M351T mutant assessed as percent of control at 2000 nM by KINOMEscan assay relative to control", "parameters": "scale not given: the % may be the effect or the level left"}, "[2]": {"test_system": "Tyrosine-protein kinase ABL1 (Homo sapiens), P00519 [Q252H]", "assay": "Inhibition of non-phosphorylated human ABL1 Q252H mutant assessed as percent of control at 2000 nM by KINOMEscan assay relative to control", "parameters": "scale not given: the % may be the effect or the level left"}, "[3]": {"target": "Ankyrin repeat and protein kinase domain-containing protein 1 (Homo sapiens) (UniProt Q8NFD2)", "assay": "Inhibition of human ANKK1 assessed as percent of control at 2000 nM by KINOMEscan assay relative to control", "parameters": "scale not given: the % may be the effect or the level left"}, "[4]": {"target": "Aurora kinase C (Homo sapiens) (UniProt Q9UQB9)", "sequence (Q9UQB9 whole entry)": "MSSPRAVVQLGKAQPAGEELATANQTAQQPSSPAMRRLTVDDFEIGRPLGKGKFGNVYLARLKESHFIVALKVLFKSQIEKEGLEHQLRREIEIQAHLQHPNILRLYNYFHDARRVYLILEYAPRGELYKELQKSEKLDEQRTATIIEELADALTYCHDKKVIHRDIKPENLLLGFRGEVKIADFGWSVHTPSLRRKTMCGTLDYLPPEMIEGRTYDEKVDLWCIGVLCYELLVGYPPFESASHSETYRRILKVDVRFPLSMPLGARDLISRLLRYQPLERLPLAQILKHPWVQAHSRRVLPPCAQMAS", "assay": "Inhibition of human AURKC assessed as percent of control at 2000 nM by KINOMEscan assay relative to control", "parameters": "scale not given: the % may be the effect or the level left"}, "[5]": {"target": "Peripheral plasma membrane protein CASK (Homo sapiens) (UniProt O14936)", "assay": "Inhibition of human CASK assessed as percent of control at 2000 nM by KINOMEscan assay relative to control", "parameters": "scale not given: the % may be the effect or the level left"}, "[6]": {"target": "CDK4/Cyclin D3 (Homo sapiens) (UniProt P11802+P30281)", "assay": "Inhibition of human CDK4/cyclin D3 assessed as percent of control at 2000 nM by KINOMEscan assay relative to control", "format": "protein-complex assay", "parameters": "scale not given: the % may be the effect or the level left"}, "[7]": {"target": "Cyclin-dependent kinase 7 (Homo sapiens) (UniProt P50613)", "sequence (P50613 whole entry)": "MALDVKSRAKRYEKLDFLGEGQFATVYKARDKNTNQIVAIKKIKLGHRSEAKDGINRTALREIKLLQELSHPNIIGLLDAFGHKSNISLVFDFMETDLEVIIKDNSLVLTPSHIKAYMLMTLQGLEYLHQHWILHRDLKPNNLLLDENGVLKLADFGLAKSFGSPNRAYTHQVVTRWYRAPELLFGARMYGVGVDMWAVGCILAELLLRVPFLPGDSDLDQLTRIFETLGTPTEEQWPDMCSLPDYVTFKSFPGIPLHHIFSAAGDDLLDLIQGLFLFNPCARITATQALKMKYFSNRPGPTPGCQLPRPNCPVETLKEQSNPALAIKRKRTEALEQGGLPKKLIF", "assay": "Inhibition of human CDK7 assessed as percent of control at 2000 nM by KINOMEscan assay relative to control", "parameters": "scale not given: the % may be the effect or the level left"}, "[8]": {"target": "Casein kinase I isoform epsilon (Homo sapiens) (UniProt P49674)", "assay": "Inhibition of human CSNK1E assessed as percent of control at 2000 nM by KINOMEscan assay relative to control", "parameters": "scale not given: the % may be the effect or the level left", "conditions": "INHIBITOR"}, "[9]": {"target": "Death-associated protein kinase 2 (Homo sapiens) (UniProt Q9UIK4)", "sequence (Q9UIK4 whole entry, looked up)": "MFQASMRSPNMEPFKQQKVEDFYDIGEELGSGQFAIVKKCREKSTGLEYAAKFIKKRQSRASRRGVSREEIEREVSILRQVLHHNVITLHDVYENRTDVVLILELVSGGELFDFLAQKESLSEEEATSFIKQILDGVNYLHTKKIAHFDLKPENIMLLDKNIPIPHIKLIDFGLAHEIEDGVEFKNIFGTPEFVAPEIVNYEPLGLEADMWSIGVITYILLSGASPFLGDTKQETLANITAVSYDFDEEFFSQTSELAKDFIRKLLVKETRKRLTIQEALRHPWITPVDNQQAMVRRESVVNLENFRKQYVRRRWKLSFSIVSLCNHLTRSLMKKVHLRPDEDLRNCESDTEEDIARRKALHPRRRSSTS", "assay": "Inhibition of human DAPK2 assessed as percent of control at 2000 nM by KINOMEscan assay relative to control", "parameters": "scale not given: the % may be the effect or the level left"}, "[10]": {"target": "Death-associated protein kinase 3 (Homo sapiens) (UniProt O43293)", "sequence (O43293 whole entry, looked up)": "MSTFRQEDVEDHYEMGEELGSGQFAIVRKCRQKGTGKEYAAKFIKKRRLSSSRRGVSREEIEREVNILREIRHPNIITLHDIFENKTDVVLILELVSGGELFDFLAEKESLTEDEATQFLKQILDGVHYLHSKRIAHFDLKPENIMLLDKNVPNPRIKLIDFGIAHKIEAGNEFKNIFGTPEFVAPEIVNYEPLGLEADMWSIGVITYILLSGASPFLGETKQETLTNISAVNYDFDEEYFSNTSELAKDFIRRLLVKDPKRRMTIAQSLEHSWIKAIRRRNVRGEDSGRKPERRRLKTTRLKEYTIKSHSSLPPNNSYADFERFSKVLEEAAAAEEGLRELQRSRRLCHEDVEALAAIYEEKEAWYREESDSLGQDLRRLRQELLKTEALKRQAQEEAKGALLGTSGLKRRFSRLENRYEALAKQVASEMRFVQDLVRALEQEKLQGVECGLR", "assay": "Inhibition of human DAPK3 assessed as percent of control at 2000 nM by KINOMEscan assay relative to control", "parameters": "scale not given: the % may be the effect or the level left"}, "[11]": {"target": "Serine/threonine-protein kinase/endoribonuclease IRE1 (Homo sapiens) (UniProt O75460)", "assay": "Inhibition of human ERN1 assessed as percent of control at 2000 nM by KINOMEscan assay relative to control", "parameters": "scale not given: the % may be the effect or the level left"}, "[12]": {"test_system": "Receptor-type tyrosine-protein kinase FLT3 (Homo sapiens), P36888 [D835V]", "assay": "Inhibition of human FLT3 D835V mutant assessed as percent of control at 2000 nM by KINOMEscan assay relative to control", "parameters": "scale not given: the % may be the effect or the level left", "conditions": "INHIBITOR"}, "[13]": {"test_system": "Receptor-type tyrosine-protein kinase FLT3 (Homo sapiens), P36888 [UNDEFINED MUTATION]", "assay": "Inhibition of human FLT3 ITD/F691L double mutant assessed as percent of control at 2000 nM by KINOMEscan assay relative to control", "parameters": "scale not given: the % may be the effect or the level left"}, "[14]": {"target": "Mitogen-activated protein kinase kinase kinase 15 (Homo sapiens) (UniProt Q6ZN16)", "assay": "Inhibition of human MAP3K15 assessed as percent of control at 2000 nM by KINOMEscan assay relative to control", "parameters": "scale not given: the % may be the effect or the level left"}, "[15]": {"target": "Mitogen-activated protein kinase kinase kinase 4 (Homo sapiens) (UniProt Q9Y6R4)", "assay": "Inhibition of human MAP3K4 assessed as percent of control at 2000 nM by KINOMEscan assay relative to control", "parameters": "scale not given: the % may be the effect or the level left"}, "[16]": {"target": "Dual specificity mitogen-activated protein kinase kinase 6 (Homo sapiens) (UniProt P52564)", "assay": "Inhibition of human MEK6 assessed as percent of control at 2000 nM by KINOMEscan assay relative to control", "parameters": "scale not given: the % may be the effect or the level left"}, "[17]": {"target": "Misshapen-like kinase 1 (Homo sapiens) (UniProt Q8N4C8)", "assay": "Inhibition of human MINK assessed as percent of control at 2000 nM by KINOMEscan assay relative to control", "parameters": "scale not given: the % may be the effect or the level left"}, "[18]": {"target": "Serine/threonine-protein kinase mTOR (Homo sapiens) (UniProt P42345)", "assay": "Inhibition of human MTOR assessed as percent of control at 2000 nM by KINOMEscan assay relative to control", "parameters": "scale not given: the % may be the effect or the level left"}, "[19]": {"target": "Serine/threonine-protein kinase PAK 1 (Homo sapiens) (UniProt Q13153)", "sequence (Q13153 whole entry)": "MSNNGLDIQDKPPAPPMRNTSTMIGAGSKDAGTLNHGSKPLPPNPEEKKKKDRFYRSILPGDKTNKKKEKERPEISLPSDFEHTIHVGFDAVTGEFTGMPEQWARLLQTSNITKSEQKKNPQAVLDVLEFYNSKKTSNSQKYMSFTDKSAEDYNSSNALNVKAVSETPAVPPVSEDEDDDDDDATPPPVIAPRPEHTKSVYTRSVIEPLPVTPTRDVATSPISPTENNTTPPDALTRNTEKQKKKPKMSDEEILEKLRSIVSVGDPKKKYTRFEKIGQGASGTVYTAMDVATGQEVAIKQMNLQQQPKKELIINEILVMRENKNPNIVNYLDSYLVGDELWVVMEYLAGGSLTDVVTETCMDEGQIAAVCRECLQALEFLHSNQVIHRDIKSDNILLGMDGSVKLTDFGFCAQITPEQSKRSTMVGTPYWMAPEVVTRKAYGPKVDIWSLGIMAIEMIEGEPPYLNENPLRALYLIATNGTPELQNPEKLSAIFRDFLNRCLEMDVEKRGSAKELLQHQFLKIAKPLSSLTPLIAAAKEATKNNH", "assay": "Inhibition of human PAK1 assessed as percent of control at 2000 nM by KINOMEscan assay relative to control", "parameters": "scale not given: the % may be the effect or the level left"}, "[20]": {"target": "Platelet-derived growth factor receptor alpha (Homo sapiens) (UniProt P16234)", "assay": "Inhibition of human PDGFRA assessed as percent of control at 2000 nM by KINOMEscan assay relative to control", "parameters": "scale not given: the % may be the effect or the level left"}, "[21]": {"target": "Cyclin-dependent kinase 2 homolog (Plasmodium falciparum (isolate K1 / Thailand)) (UniProt Q07785)", "assay": "Inhibition of Plasmodium falciparum PFPK5 assessed as percent of control at 2000 nM by KINOMEscan assay relative to control", "parameters": "scale not given: the % may be the effect or the level left"}, "[22]": {"target": "Phosphorylase b kinase gamma catalytic chain, liver/testis isoform (Homo sapiens) (UniProt P15735)", "sequence (P15735 whole entry, canonical isoform)": "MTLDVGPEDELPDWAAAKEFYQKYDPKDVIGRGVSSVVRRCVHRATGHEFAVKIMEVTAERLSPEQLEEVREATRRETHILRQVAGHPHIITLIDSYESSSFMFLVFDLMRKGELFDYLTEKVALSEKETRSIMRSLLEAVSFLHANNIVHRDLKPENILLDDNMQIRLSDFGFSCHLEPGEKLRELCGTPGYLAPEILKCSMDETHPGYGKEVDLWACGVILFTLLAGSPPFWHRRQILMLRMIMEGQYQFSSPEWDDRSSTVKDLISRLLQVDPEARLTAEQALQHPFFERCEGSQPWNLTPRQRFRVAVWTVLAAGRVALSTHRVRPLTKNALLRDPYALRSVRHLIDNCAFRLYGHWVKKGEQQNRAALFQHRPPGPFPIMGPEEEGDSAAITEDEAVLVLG", "assay": "Inhibition of human PHKG2 assessed as percent of control at 2000 nM by KINOMEscan assay relative to control", "parameters": "scale not given: the % may be the effect or the level left"}, "[23]": {"target": "Serine/threonine-protein kinase PLK4 (Homo sapiens) (UniProt O00444)", "assay": "Inhibition of human PLK4 assessed as percent of control at 2000 nM by KINOMEscan assay relative to control", "parameters": "scale not given: the % may be the effect or the level left"}, "[24]": {"target": "Receptor-interacting serine/threonine-protein kinase 4 (Homo sapiens) (UniProt P57078)", "assay": "Inhibition of human RIPK4 assessed as percent of control at 2000 nM by KINOMEscan assay relative to control", "parameters": "scale not given: the % may be the effect or the level left"}, "[25]": {"target": "STE20-like serine/threonine-protein kinase (Homo sapiens) (UniProt Q9H2G2)", "sequence (Q9H2G2 whole entry, looked up)": "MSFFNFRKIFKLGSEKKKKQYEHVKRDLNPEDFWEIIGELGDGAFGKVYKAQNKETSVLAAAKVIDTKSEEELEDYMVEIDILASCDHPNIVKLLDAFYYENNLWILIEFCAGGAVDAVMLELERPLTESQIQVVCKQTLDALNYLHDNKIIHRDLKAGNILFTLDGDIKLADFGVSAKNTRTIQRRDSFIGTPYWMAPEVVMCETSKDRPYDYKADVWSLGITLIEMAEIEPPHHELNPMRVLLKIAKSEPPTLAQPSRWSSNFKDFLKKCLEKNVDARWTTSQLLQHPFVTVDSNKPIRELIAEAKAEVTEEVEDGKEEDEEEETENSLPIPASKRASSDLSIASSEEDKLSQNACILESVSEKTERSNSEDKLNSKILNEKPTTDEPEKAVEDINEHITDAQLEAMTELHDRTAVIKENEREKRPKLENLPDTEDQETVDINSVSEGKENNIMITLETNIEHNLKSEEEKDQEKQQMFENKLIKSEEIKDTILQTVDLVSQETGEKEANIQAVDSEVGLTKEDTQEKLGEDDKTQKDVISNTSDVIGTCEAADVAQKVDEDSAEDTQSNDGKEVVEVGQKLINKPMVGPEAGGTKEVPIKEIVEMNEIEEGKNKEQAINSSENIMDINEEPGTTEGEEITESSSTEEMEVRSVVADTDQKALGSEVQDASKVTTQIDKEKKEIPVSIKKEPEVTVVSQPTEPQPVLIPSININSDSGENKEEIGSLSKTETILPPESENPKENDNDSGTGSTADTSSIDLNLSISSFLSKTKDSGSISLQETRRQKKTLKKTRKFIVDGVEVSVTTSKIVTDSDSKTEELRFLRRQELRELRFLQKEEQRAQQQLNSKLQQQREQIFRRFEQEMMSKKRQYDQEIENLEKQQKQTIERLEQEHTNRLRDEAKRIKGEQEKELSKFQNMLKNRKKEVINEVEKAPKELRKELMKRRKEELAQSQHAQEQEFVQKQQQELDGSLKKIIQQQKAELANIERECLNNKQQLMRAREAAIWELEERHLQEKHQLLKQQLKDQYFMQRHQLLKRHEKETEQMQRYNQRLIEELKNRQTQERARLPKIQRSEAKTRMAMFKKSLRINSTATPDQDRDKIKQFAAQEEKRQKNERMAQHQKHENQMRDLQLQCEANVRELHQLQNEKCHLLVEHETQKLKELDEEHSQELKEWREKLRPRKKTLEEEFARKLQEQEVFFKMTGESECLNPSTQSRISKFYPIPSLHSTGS", "assay": "Inhibition of human SLK assessed as percent of control at 2000 nM by KINOMEscan assay relative to control", "parameters": "scale not given: the % may be the effect or the level left"}, "[26]": {"target": "Serine/threonine-protein kinase TAO2 (Homo sapiens) (UniProt Q9UL54)", "sequence (Q9UL54 whole entry)": "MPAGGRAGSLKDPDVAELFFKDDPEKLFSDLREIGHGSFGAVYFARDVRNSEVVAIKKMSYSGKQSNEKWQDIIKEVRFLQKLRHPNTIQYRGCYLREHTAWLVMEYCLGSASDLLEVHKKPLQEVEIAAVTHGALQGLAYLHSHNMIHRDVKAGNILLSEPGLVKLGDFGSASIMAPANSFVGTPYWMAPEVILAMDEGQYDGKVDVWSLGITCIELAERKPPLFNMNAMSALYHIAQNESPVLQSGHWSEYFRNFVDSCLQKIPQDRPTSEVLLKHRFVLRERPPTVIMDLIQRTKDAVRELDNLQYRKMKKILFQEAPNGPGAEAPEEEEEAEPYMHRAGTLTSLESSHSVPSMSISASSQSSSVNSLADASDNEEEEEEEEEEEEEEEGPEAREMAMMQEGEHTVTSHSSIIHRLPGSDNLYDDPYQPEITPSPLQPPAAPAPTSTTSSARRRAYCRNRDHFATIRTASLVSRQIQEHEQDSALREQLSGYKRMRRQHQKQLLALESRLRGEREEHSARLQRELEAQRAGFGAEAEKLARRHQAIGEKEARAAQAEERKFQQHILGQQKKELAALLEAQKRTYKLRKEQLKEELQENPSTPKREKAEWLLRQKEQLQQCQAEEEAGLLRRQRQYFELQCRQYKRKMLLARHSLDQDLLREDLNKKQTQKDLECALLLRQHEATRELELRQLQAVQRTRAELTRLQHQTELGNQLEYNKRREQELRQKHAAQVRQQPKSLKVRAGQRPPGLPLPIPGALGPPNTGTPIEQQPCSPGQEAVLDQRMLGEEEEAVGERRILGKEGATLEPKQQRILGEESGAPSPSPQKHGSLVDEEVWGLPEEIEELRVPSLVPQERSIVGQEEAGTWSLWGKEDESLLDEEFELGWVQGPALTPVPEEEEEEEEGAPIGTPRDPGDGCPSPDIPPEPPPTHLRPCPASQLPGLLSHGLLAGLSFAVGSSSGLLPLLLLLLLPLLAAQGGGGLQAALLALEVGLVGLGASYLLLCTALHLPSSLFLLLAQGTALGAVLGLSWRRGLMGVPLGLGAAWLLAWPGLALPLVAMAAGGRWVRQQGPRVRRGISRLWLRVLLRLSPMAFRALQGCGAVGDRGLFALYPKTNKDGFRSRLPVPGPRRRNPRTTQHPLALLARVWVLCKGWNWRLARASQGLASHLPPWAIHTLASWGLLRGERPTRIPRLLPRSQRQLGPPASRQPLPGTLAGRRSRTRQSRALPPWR", "assay": "Inhibition of human TAOK2 assessed as percent of control at 2000 nM by KINOMEscan assay relative to control", "parameters": "scale not given: the % may be the effect or the level left"}, "[27]": {"target": "BDNF/NT-3 growth factors receptor (Homo sapiens) (UniProt Q16620)", "assay": "Inhibition of human TRKB assessed as percent of control at 2000 nM by KINOMEscan assay relative to control", "parameters": "scale not given: the % may be the effect or the level left"}, "[28]": {"target": "Phosphatidylinositol 3-kinase catalytic subunit type 3 (Homo sapiens) (UniProt Q8NEB9)", "assay": "Inhibition of human VPS34 assessed as percent of control at 2000 nM by KINOMEscan assay relative to control", "parameters": "scale not given: the % may be the effect or the level left"}, "[29]": {"test_system": "CWR22R", "assay": "Antitumor activity against human 22Rv1 cells expressing AR-V7 xenografted in male nude mouse assessed as suppression of tumor growth at 50 mg/kg, administered once a day for 40 days", "format": "functional, organism-based"}, "[30]": {"target": "Serine/threonine-protein kinase RIO2 (Homo sapiens) (UniProt Q9BVS4)", "conditions": "INHIBITOR, dose 2000.0 nM", "description": "Inhibition of human RIOK2 at 2000 nM by KINOMEscan assay"}}, "note": "“And” between values parts separate entries of the source, which are not always exact repeats. Equal entries are not always repeated. The source made the active and inactive calls. The calls are words filed in the database; no cut-off is given here."}
{"smiles": "CN(C)C(=O)c1ccc(N2CCCN(c3ccnc4sc(C(N)=O)c(N)c34)CC2)cc1", "values": [{"measurement": "Activity", "setting": "[1]", "value": 77, "unit": "%"}, {"measurement": "Activity", "setting": "[1]; INHIBITOR", "value": 10, "unit": "%"}, {"measurement": "Activity", "setting": "[2]", "value": "94% and 75%"}, {"measurement": "Activity", "setting": "[3]", "value": "100% and 91%"}, {"measurement": "Activity", "setting": "[4]", "value": 100, "unit": "%"}, {"measurement": "Activity", "setting": "[5]", "value": "71% and 96%"}, {"measurement": "Activity", "setting": "[6]", "value": "95% and 97%"}, {"measurement": "Activity", "setting": "[7]", "value": "100% and 78%"}, {"measurement": "Activity", "setting": "[8]", "value": "25% and 12%"}, {"measurement": "Activity", "setting": "[9]", "value": "75% and 85%"}, {"measurement": "Activity", "setting": "[10]", "value": "81% and 83%"}, {"measurement": "Activity", "setting": "[11]", "value": "100% and 80%"}, {"measurement": "Activity", "setting": "[12]", "value": "33% and 14%"}, {"measurement": "Activity", "setting": "[13]", "value": "95% and 75%"}, {"measurement": "Activity", "setting": "[14]", "value": "97% and 92%"}, {"measurement": "Activity", "setting": "[15]", "value": "90% and 100%"}, {"measurement": "Activity", "setting": "[16]", "value": "100% and 96%"}, {"measurement": "Activity", "setting": "[17]", "value": "100% and 87%"}, {"measurement": "Activity", "setting": "[18]", "value": "88% and 97%"}, {"measurement": "Activity", "setting": "[19]", "value": "96% and 92%"}, {"measurement": "Activity", "setting": "[20]", "value": "70% and 65%"}, {"measurement": "Activity", "setting": "[21]", "value": "68% and 67%"}, {"measurement": "Activity", "setting": "[22]", "value": "86% and 83%"}, {"measurement": "Activity", "setting": "[23]", "value": "95% and 92%"}, {"measurement": "Activity", "setting": "[24]", "value": "89% and 68%"}, {"measurement": "Activity", "setting": "[25]", "value": "56% and 54%"}, {"measurement": "Activity", "setting": "[26]", "value": "92% and 93%"}, {"measurement": "Activity", "setting": "[27]", "value": "88% and 78%"}, {"measurement": "Activity", "setting": "[28]", "value": "85% and 65%"}, {"measurement": "Activity", "setting": "[29]", "value": "Active"}, {"measurement": "inhibition", "setting": "[30]", "value": "> 65", "unit": "%"}]}
